Measured values published in ChEMBL document CHEMBL5214900, “Design, Synthesis, and Biological Evaluation of Membrane-Active Bakuchiol Derivatives as Effective Broad-Spectrum Antibacterial Agents” (J Med Chem, 2021).
Values after ≈ are worked out from the molar mass of the structure shown.

How the values were obtained:
Staphylococcus aureus [1] = test: Antibacterial activity against Staphylococcus aureus ATCC 29213 assessed as inhibition of bacterial growth incubated for 24 hrs by CLSI based broth dilution method; type: functional
Staphylococcus aureus [2] = test: Antibacterial activity against methicillin-resistant Staphylococcus aureus N315 assessed as inhibition of bacterial growth incubated for 24 hrs by CLSI based broth dilution method; type: functional
Staphylococcus aureus [3] = test: Antibacterial activity against methicillin-resistant Staphylococcus aureus NCTC10442 assessed as inhibition of bacterial growth incubated for 24 hrs by CLSI based broth dilution method; type: functional
Escherichia coli = test: Antibacterial activity against Escherichia coli ATCC 25922 assessed as inhibition of bacterial growth incubated for 24 hrs by CLSI based broth dilution method; type: functional
[4] = Hemolytic activity in rabbit RBC measured after 1 hrs by multimode reader assay; type: toxicity, cell-based, Oryctolagus cuniculus, Erythrocyte; settings: rabbit red blood cells (erythrocytes)
Pseudomonas aeruginosa = test: Antibacterial activity against Pseudomonas aeruginosa ATCC 9027 assessed as inhibition of bacterial growth incubated for 24 hrs by CLSI based broth dilution method; type: functional
Acinetobacter baumannii [5] = test: Antibacterial activity against Acinetobacter baumannii ATCC 17978 assessed as inhibition of bacterial growth incubated for 24 hrs by CLSI based broth dilution method; type: functional
Acinetobacter baumannii [6] = test: Antibacterial activity against Acinetobacter baumannii R2889 assessed as inhibition of bacterial growth incubated for 24 hrs by CLSI based broth dilution method; type: functional
Klebsiella pneumoniae [7] = test: Antibacterial activity against Klebsiella pneumoniae ATCC 10031 assessed as inhibition of bacterial growth incubated for 24 hrs by CLSI based broth dilution method; type: functional
Klebsiella pneumoniae [8] = test: Antibacterial activity against Klebsiella pneumoniae ATCC 14581 assessed as inhibition of bacterial growth incubated for 24 hrs by CLSI based broth dilution method; type: functional

Row | Compound | MIC (Staphylococcus aureus [1]) [µg/mL] | MIC (Staphylococcus aureus [2]) [µg/mL] | MIC (Staphylococcus aureus [3]) [µg/mL] | MIC (Escherichia coli) [µg/mL] | HC50 at 1 h [4] [µg/mL] | MIC (Pseudomonas aeruginosa) [µg/mL] | MIC (Acinetobacter baumannii [5]) [µg/mL] | MIC (Acinetobacter baumannii [6]) [µg/mL] | MIC (Klebsiella pneumoniae [7]) [µg/mL] | MIC (Klebsiella pneumoniae [8]) [µg/mL]
1 | C=C[C@@](C)(/C=C/c1ccc(OCCCCCCCCN(CC)CC)cc1)CCC=C(C)C | 3.12 (≈ 7.11 µM) | 1.56 (≈ 3.55 µM) | 1.56 (≈ 3.55 µM) | > 100 | 83.5 | – | – | – | – | –
2 | C=C[C@@](C)(/C=C/c1ccc(OCCCCCCBr)cc1)CCC=C(C)C | > 50 | > 50 | > 50 | > 100 | > 200 | – | – | – | – | –
3 | C=C[C@@](C)(/C=C/c1ccc(OCCCBr)cc1)CCC=C(C)C | > 50 | > 50 | > 50 | > 100 | > 200 | – | – | – | – | –
4 | C=C[C@@](C)(/C=C/c1ccc(OCCCCNCCCCCCCCCC)cc1)CCC=C(C)C | 50 (≈ 107 µM) | 12.5 (≈ 26.7 µM) | 50 (≈ 107 µM) | > 100 | > 200 | – | – | – | – | –
5 | C=C[C@@](C)(/C=C/c1ccc(OCCCCNCCSC)cc1)CCC=C(C)C | 0.78 (≈ 1.94 µM) | 0.78 (≈ 1.94 µM) | 1.56 (≈ 3.88 µM) | 50 (≈ 124 µM) | 32.5 | – | – | – | – | –
6 | C=C[C@@](C)(/C=C/c1ccc(OCCCC[N+](C)(CCCC)CCCC)cc1)CCC=C(C)C.[I-] | 1.56 | 0.78 | 0.39 | 12.5 | 40.6 | – | – | – | – | –
7 | C=C[C@@](C)(/C=C/c1ccc(OCCCCNCC)cc1)CCC=C(C)C | 1.56 (≈ 4.39 µM) | 0.78 (≈ 2.19 µM) | 1.56 (≈ 4.39 µM) | 12.5 (≈ 35.2 µM) | 21.8 | – | – | – | – | –
8 | C=C[C@@](C)(/C=C/c1ccc(OCCCCCCCCCCBr)cc1)CCC=C(C)C | > 50 | > 50 | > 50 | > 100 | > 200 | – | – | – | – | –
9 | C=C[C@@](C)(/C=C/c1ccc(OCCCCN2CCN(C)CC2)cc1)CCC=C(C)C | 1.56 (≈ 3.8 µM) | 3.12 (≈ 7.61 µM) | 3.12 (≈ 7.61 µM) | > 100 | 104 | – | – | – | – | –
10 | C=C[C@@](C)(/C=C/c1ccc(OCCCCN2CCN(CCCN(C)C)CC2)cc1)CCC=C(C)C | 1.56 (≈ 3.24 µM) | 0.78 (≈ 1.62 µM) | 3.12 (≈ 6.49 µM) | 3.12 (≈ 6.49 µM) | 52 | 50 (≈ 104 µM) | 6.25 (≈ 13 µM) | 6.25 (≈ 13 µM) | 1.56 (≈ 3.24 µM) | 1.56 (≈ 3.24 µM)
11 | C=C[C@@](C)(/C=C/c1ccc(OCCCCCCN(CC)CC)cc1)CCC=C(C)C | 3.12 (≈ 7.59 µM) | 0.78 (≈ 1.89 µM) | 1.56 (≈ 3.79 µM) | > 100 | 65 | – | – | – | – | –
12 | C=C[C@@](C)(/C=C/c1ccc(OCCCCN(C)CCCN(C)C)cc1)CCC=C(C)C | 1.56 (≈ 3.66 µM) | 1.56 (≈ 3.66 µM) | 3.12 (≈ 7.32 µM) | 3.12 (≈ 7.32 µM) | 32.5 | 12.5 (≈ 29.3 µM) | 1.56 (≈ 3.66 µM) | 1.56 (≈ 3.66 µM) | 1.56 (≈ 3.66 µM) | 1.56 (≈ 3.66 µM)
13 | C=C[C@@](C)(/C=C/c1ccc(OCCCN(CCCC)CCCC)cc1)CCC=C(C)C | > 50 | > 50 | > 50 | > 100 | > 200 | – | – | – | – | –
14 | C=C[C@@](C)(/C=C/c1ccc(OCCCCNCCCCCC)cc1)CCC=C(C)C | 1.56 (≈ 3.79 µM) | 0.78 (≈ 1.89 µM) | 1.56 (≈ 3.79 µM) | 100 (≈ 243 µM) | 120 | – | – | – | – | –
15 | C=C[C@@](C)(/C=C/c1ccc(OCCCCBr)cc1)CCC=C(C)C | > 50 | > 50 | > 50 | > 100 | > 200 | – | – | – | – | –
16 | C=C[C@@](C)(/C=C/c1ccc(OCCCC[N+](C)(C)C)cc1)CCC=C(C)C.[I-] | 0.78 | 0.78 | 0.78 | 6.25 | 34.2 | – | – | – | – | –
17 | C=C[C@@](C)(/C=C/c1ccc(O)cc1)CCC=C(C)C [BAKUCHIOL] | 6.25 (≈ 24.4 µM) | 3.12 (≈ 12.2 µM) | 3.12 (≈ 12.2 µM) | > 100 | 89.7 | > 50 | > 50 | > 50 | 12.5 (≈ 48.8 µM) | > 50
18 | CC[C@H](C)[C@H](NC(=O)CN)C(=O)NCC(=O)N[C@@H](C)C(=O)N[C@H](C(=O)N[C@@H](CC(C)C)C(=O)N[C@@H](CCCCN)C(=O)N[C@H](C(=O)N[C@@H](CC(C)C)C(=O)N[C@H](C(=O)N[C@H](C(=O)NCC(=O)N[C@@H](CC(C)C)C(=O)N1CCC[C@H]1C(=O)N[C@@H](C)C(=O)N[C@@H](CC(C)C)C(=O)N[C@H](C(=O)N[C@@H](CO)C(=O)N[C@@H](Cc1c[nH]c2ccccc12)C(=O)N[C@H](C(=O)N[C@@H](CCCCN)C(=O)N[C@@H](CCCNC(=N)N)C(=O)N[C@@H](CCCCN)C(=O)N[C@@H](CCCNC(=N)N)C(=O)N[C@@H](CCC(N)=O)C(=O)N[C@@H](CCC(N)=O)C(N)=O)[C@@H](C)CC)[C@@H](C)CC)[C@@H](C)O)[C@@H](C)O)C(C)C)C(C)C [MELITTIN] | – | – | – | – | – | – | 3.12 (≈ 1.1 µM) | 3.12 (≈ 1.1 µM) | 6.25 (≈ 2.2 µM) | 6.25 (≈ 2.2 µM)
19 | C=C[C@@](C)(/C=C/c1ccc(OCCCCN(CCCC)CCCC)cc1)CCC=C(C)C | > 50 | > 50 | > 50 | > 100 | > 200 | – | – | – | – | –
20 | C=C[C@@](C)(/C=C/c1ccc(OCCCN(CC)CC)cc1)CCC=C(C)C | 3.12 (≈ 8.46 µM) | 3.12 (≈ 8.46 µM) | 3.12 (≈ 8.46 µM) | > 100 | 102 | – | – | – | – | –
21 | C=C[C@@](C)(/C=C/c1ccc(OCCCCCCCCCCN(CC)CC)cc1)CCC=C(C)C | 12.5 (≈ 26.7 µM) | 3.12 (≈ 6.68 µM) | 3.13 (≈ 6.68 µM) | > 100 | > 200 | – | – | – | – | –
22 | C=C[C@@](C)(/C=C/c1ccc(OCCCCNCCCC)cc1)CCC=C(C)C | 1.56 (≈ 4.07 µM) | 1.56 (≈ 4.07 µM) | 1.56 (≈ 4.07 µM) | 12.5 (≈ 32.6 µM) | 32.4 | – | – | – | – | –
23 | C=C[C@@](C)(/C=C/c1ccc(OCCCCCCCCBr)cc1)CCC=C(C)C | > 50 | > 50 | > 50 | > 100 | > 200 | – | – | – | – | –
24 | C=C[C@@](C)(/C=C/c1ccc(OCCCCN(CC)CC)cc1)CCC=C(C)C | 3.12 (≈ 8.15 µM) | 3.12 (≈ 8.15 µM) | 3.12 (≈ 8.15 µM) | > 100 | 109 | – | – | – | – | –
25 | C=C[C@@](C)(/C=C/c1ccc(OCCCCN2CCCC2)cc1)CCC=C(C)C | 1.56 (≈ 4.09 µM) | 1.56 (≈ 4.09 µM) | 1.56 (≈ 4.09 µM) | > 100 | 58.2 | – | – | – | – | –
26 | C=C[C@@](C)(/C=C/c1ccc(OCCCCNCCCCCCCC)cc1)CCC=C(C)C | 6.25 (≈ 14.2 µM) | 1.56 (≈ 3.55 µM) | 3.12 (≈ 7.11 µM) | > 100 | > 200 | – | – | – | – | –
27 | C=C[C@@](C)(/C=C/c1ccc(OCCCCN(C)C)cc1)CCC=C(C)C | 1.56 (≈ 4.39 µM) | 1.56 (≈ 4.39 µM) | 3.12 (≈ 8.79 µM) | 50 (≈ 141 µM) | 41.7 | – | – | – | – | –
28 | C=C[C@@](C)(/C=C/c1ccc(OCCCN(C)C)cc1)CCC=C(C)C | 6.25 (≈ 18.3 µM) | 6.25 (≈ 18.3 µM) | 6.25 (≈ 18.3 µM) | > 100 | 88.5 | – | – | – | – | –
29 | C=C[C@@](C)(/C=C/c1ccc(OCCCCN(Cc2ccccn2)Cc2ccccn2)cc1)CCC=C(C)C | 3.12 (≈ 6.13 µM) | 1.56 (≈ 3.06 µM) | 1.56 (≈ 3.06 µM) | > 100 | > 200 | – | – | – | – | –
30 | C=C[C@@](C)(/C=C/c1ccc(OCCCC[N+](C)(CC)CC)cc1)CCC=C(C)C.[I-] | 1.56 | 0.39 | 0.78 | 12.5 | 57 | – | – | – | – | –
